Laboratory results: US8722849B2, “Polypeptides” (Novo Nordisk A/S, priority 2011, dated 2014)
Values after ≈ are worked out from the molar mass of the structure shown. Read-outs that look alike come from different tables or passages of the source. Starred links: 1 amine or outer side, 2 acyl side, 3 side chain; linkers in the order of their positions; H or OH if unused. Positions of bridges follow the written chain, without caps; N, C: chain ends. Residues, ends and D or L forms follow the SMILES beside them. *: point of attachment. C20 diacid = O=C(O)CCCCCCCCCCCCCCCCCCC(=O)*; C18 diacid = O=C(O)CCCCCCCCCCCCCCCCC(=O)*; γGlu = O=C(O)[C@H](CCC(=O)[*:2])N[*:1]

Columns and labels:
[1] = biological target: T1, human amylin receptor (amylin 3(a) receptor: human calcitonin receptor + RAMP-3) (Homo sapiens, UniProt O60896+P30988); experiment: Assay (II)a functional CRE-luciferase assay, human amylin receptor; type: cell-based; details: Table 2; BHK amylin 3(a)-receptor/CRE-luc cells
T1 construct: expressed in transfected cells; host or cells: BHK570
T1 sequence (P30988 25-474): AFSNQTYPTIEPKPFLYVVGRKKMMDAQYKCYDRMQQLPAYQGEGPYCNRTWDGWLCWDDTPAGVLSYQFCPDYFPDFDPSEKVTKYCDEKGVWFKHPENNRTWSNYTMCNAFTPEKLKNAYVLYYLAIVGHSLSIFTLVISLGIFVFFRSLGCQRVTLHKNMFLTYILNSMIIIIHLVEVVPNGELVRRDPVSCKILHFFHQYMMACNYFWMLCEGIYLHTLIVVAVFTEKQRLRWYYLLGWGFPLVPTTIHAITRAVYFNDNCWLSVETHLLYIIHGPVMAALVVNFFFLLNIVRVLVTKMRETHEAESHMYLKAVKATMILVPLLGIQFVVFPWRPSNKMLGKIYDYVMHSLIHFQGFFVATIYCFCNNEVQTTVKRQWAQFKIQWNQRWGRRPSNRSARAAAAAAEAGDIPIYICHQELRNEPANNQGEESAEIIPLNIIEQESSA
T1 sequence (O60896 24-148 partner): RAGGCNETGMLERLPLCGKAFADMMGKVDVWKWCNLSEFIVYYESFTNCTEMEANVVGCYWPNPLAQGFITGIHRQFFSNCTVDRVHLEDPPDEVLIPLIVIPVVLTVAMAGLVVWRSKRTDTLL

[2] = Assay (IV) determination of solubility; type: physicochemical
In short: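 Eight 100 mM buffers (glycylglycine pH 3.0–5.0, bistrispropane pH 6.0–8.0) each received an equal volume of polypeptide dissolved in water at ~500 nmol/ml. Soluble polypeptide was measured by HPLC following 18 hours at room temperature and centrifugation.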

[3] = biological target: T2, human calcitonin receptor (Homo sapiens, UniProt P30988); experiment: Assay (II)a functional CRE-luciferase assay, human calcitonin receptor; type: cell-based; details: Table 7; human calcitonin (CTa) receptor
T2 construct: expressed in transfected cells; host or cells: BHK570
T2 sequence (P30988 25-474): T1 sequence (P30988 25-474)

[4] = bistrispropane buffer, pH 6, pH 6.0, read-out: Solubility pH 6.0
[5] = bistrispropane buffer, pH 6.5, pH 6.5, read-out: Solubility pH 6.5
[6] = bistrispropane buffer, pH 7, pH 7.0, 18 hours at room temperature, Table 3, read-out: Solubility pH 7.0
[7] = bistrispropane buffer, pH 7, pH 7.0, Table 8, read-out: Solubility pH 7.0
[8] = bistrispropane buffer, pH 7, pH 7.0, read-out: Solubility pH 7.0
[9] = bistrispropane buffer, pH 7.5, pH 7.5, read-out: Solubility pH 7.5
[10] = bistrispropane buffer, pH 8, pH 8.0, read-out: Solubility pH 8.0
[11] = glycylglycine buffer, pH 3, pH 3.0, read-out: Solubility pH 3.0
[12] = glycylglycine buffer, pH 4, pH 4.0, 18 hours at room temperature, Table 2, read-out: Solubility pH 4.0
[13] = glycylglycine buffer, pH 4, pH 4.0, read-out: Solubility pH 4.0
[14] = glycylglycine buffer, pH 5, pH 5.0, read-out: Solubility pH 5.0

| EC50 [1] [nM] | solubility at 18 h [2, 4] [µM] | solubility at 18 h [2, 5] [µM] | solubility at 18 h [2, 6] [µM] | solubility at 18 h [2, 7] [µM] | solubility at 18 h [2, 8] [µM] | solubility at 18 h [2, 9] [µM] | solubility at 18 h [2, 10] [µM] | solubility at 18 h [2, 11] [µM] | solubility at 18 h [2, 12] [µM] | solubility at 18 h [2, 13] [µM] | solubility at 18 h [2, 14] [µM] | EC50 [3] [nM] | solubility at 18 h ([2]; bistrispropane buffer, pH 7, pH 7.0, Table 9, read-out: Solubility pH 7.0) [µM] | solubility at 18 h ([2]; bistrispropane buffer, pH 7.5, pH 7.5, Table 9, read-out: Solubility pH 7.5) [µM] | SMILES |
| --- | --- | --- | --- | --- | --- | --- | --- | --- | --- | --- | --- | --- | --- | --- | --- |
| 0.217 | > 200 | > 200 | 176 (≈ 781 µg/mL) | 176 (≈ 781 µg/mL) | 176 (≈ 781 µg/mL) | 96 (≈ 426 µg/mL) | 89 (≈ 395 µg/mL) | > 200 | > 200 | > 200 | > 200 | 0.342 | – | – | CC(C)C[C@H](NC(=O)[C@H](CCCNC(=N)N)NC(=O)[C@H](CCC(N)=O)NC(=O)[C@@H](NC(=O)[C@H](C)NC(=O)[C@@H]1CSSC[C@H](NC(=O)[C@H](CCCCN)NC(=O)CC[C@H](NC(=O)CCCCCCCCCCCCCCCCCCC(=O)O)C(=O)O)C(=O)N[C@@H](CC(N)=O)C(=O)N[C@@H]([C@@H](C)O)C(=O)N[C@@H](C)C(=O)N[C@@H]([C@@H](C)O)C(=O)N1)[C@@H](C)O)C(=O)N[C@@H](C)C(=O)N[C@@H](CCC(=O)O)C(=O)N[C@@H](Cc1ccccc1)C(=O)N[C@@H](CC(C)C)C(=O)N[C@@H](CCCNC(=N)N)C(=O)N[C@@H](Cc1c[nH]cn1)C(=O)N[C@@H](CO)C(=O)N[C@@H](CO)C(=O)N[C@@H](CC(N)=O)C(=O)N[C@@H](CC(N)=O)C(=O)N[C@@H](Cc1ccccc1)C(=O)NCC(=O)N[C@@H](C)C(=O)N1CCC[C@H]1C(=O)N[C@@H](CC(C)C)C(=O)N[C@@H](CO)C(=O)N[C@@H](CO)C(=O)N[C@H](C(=O)N[C@@H](CC(N)=O)C(=O)N[C@H](C(=O)NCC(=O)N[C@@H](CO)C(=O)N[C@@H](Cc1c[nH]cn1)C(=O)N[C@H](C(=O)N[C@@H](Cc1ccc(O)cc1)C(N)=O)[C@@H](C)O)C(C)C)[C@@H](C)O [Example 65, N-alpha-[(S)-4-Carboxy-4-(19-carboxynonadecanoylamino)butyryl]-[Glu14,Arg17,Ala25,Pro26,Ser28,Ser29,His35]-pramlintide] ({C20 diacid-γGlu}-KCNTATCATQRLAEFLRHSSNNFGAPLSSTNVGSHTY-NH2; disulfide 2-7 (inferred); C-terminus assumed) |
| 0.036 | > 200 | > 200 | > 200 | > 200 | > 200 | > 200 | > 200 | > 200 | > 200 | > 200 | > 200 | 0.055 | > 200 | > 200 | CC[C@H](C)[C@H](NC(=O)[C@@H]1CCCN1C(=O)CNC(=O)[C@H](Cc1ccccc1)NC(=O)[C@H](CC(N)=O)NC(=O)[C@H](CC(N)=O)NC(=O)[C@H](CO)NC(=O)[C@H](CO)NC(=O)[C@H](Cc1c[nH]cn1)NC(=O)[C@H](CCCNC(=N)N)NC(=O)[C@H](CC(C)C)NC(=O)[C@H](Cc1ccccc1)NC(=O)[C@H](CCC(=O)O)NC(=O)[C@H](C)NC(=O)[C@H](CC(C)C)NC(=O)[C@H](CCCNC(=N)N)NC(=O)[C@H](CCC(N)=O)NC(=O)[C@@H](NC(=O)[C@H](C)NC(=O)[C@@H]1CSSC[C@H](NC(=O)CNC(=O)CC[C@H](NC(=O)CCCCCCCCCCCCCCCCCCC(=O)O)C(=O)O)C(=O)N[C@@H](CC(N)=O)C(=O)N[C@@H]([C@@H](C)O)C(=O)N[C@@H](C)C(=O)N[C@@H]([C@@H](C)O)C(=O)N1)[C@@H](C)O)C(=O)N[C@@H](CC(C)C)C(=O)N1CCC[C@H]1C(=O)N1CCC[C@H]1C(=O)N[C@H](C(=O)N[C@@H](CC(N)=O)C(=O)N[C@H](C(=O)NCC(=O)N[C@@H](CO)C(=O)N[C@@H](CC(N)=O)C(=O)N[C@H](C(=O)N1CCC[C@H]1C(N)=O)[C@@H](C)O)C(C)C)[C@@H](C)O [Example 88, N-alpha-[(S)-4-Carboxy-4-(19-carboxynonadecanoylamino)butyryl]-[Gly1,Glu14,Arg17,Pro37]-pramlintide] ({C20 diacid-γGlu}-GCNTATCATQRLAEFLRHSSNNFGPILPPTNVGSNTP-NH2; disulfide 2-7 (inferred); C-terminus assumed) |
| 0.0675 | > 200 | > 200 | – | – | 81 (≈ 362 µg/mL) | 50 (≈ 224 µg/mL) | 48 (≈ 215 µg/mL) | > 200 | > 200 | > 200 | > 200 | 0.335 | – | – | CC[C@H](C)[C@H](NC(=O)[C@@H]1CCCN1C(=O)CNC(=O)[C@H](Cc1ccccc1)NC(=O)[C@H](CC(N)=O)NC(=O)[C@H](CC(N)=O)NC(=O)[C@H](CO)NC(=O)[C@H](CO)NC(=O)[C@H](Cc1c[nH]cn1)NC(=O)[C@H](CCCNC(=N)N)NC(=O)[C@H](CC(C)C)NC(=O)[C@H](Cc1ccccc1)NC(=O)[C@H](CCC(=O)O)NC(=O)[C@H](C)NC(=O)[C@H](CC(C)C)NC(=O)[C@H](CCCNC(=N)N)NC(=O)[C@H](CCC(N)=O)NC(=O)[C@@H](NC(=O)[C@H](C)NC(=O)[C@@H]1CSSC[C@H](NC(=O)[C@H](CCCCN)NC(=O)CC[C@H](NC(=O)CCCCCCCCCCCCCCCCC(=O)O)C(=O)O)C(=O)N[C@@H](CC(N)=O)C(=O)N[C@@H]([C@@H](C)O)C(=O)N[C@@H](C)C(=O)N[C@@H]([C@@H](C)O)C(=O)N1)[C@@H](C)O)C(=O)N[C@@H](CC(C)C)C(=O)N1CCC[C@H]1C(=O)N1CCC[C@H]1C(=O)N[C@H](C(=O)N[C@@H](CC(N)=O)C(=O)N[C@H](C(=O)NCC(=O)N[C@@H](CO)C(=O)N[C@@H](Cc1c[nH]cn1)C(=O)N[C@H](C(=O)N[C@@H](Cc1ccc(O)cc1)C(N)=O)[C@@H](C)O)C(C)C)[C@@H](C)O [Example 61, N-alpha-[(S)-4-Carboxy-4-(17-carboxyheptadecanoylamino)butyryl]-[Glu14,Arg17,His35]-pramlintide] ({C18 diacid-γGlu}-KCNTATCATQRLAEFLRHSSNNFGPILPPTNVGSHTY-NH2; disulfide 2-7 (inferred)) |
| 0.172 | > 200 | > 200 | > 200 | > 200 | > 200 | > 200 | > 200 | > 200 | > 200 | > 200 | > 200 | 1.07 | – | – | CC[C@H](C)[C@H](NC(=O)[C@@H]1CCCN1C(=O)CNC(=O)[C@H](Cc1ccccc1)NC(=O)[C@H](CC(N)=O)NC(=O)[C@H](CC(N)=O)NC(=O)[C@H](CO)NC(=O)[C@H](CO)NC(=O)[C@H](Cc1c[nH]cn1)NC(=O)[C@H](CCCNC(=N)N)NC(=O)[C@H](CC(C)C)NC(=O)[C@H](Cc1ccccc1)NC(=O)[C@H](CCC(=O)O)NC(=O)[C@H](C)NC(=O)[C@H](CC(C)C)NC(=O)[C@H](CCCNC(=N)N)NC(=O)[C@H](CCC(N)=O)NC(=O)[C@@H](NC(=O)[C@H](C)NC(=O)[C@@H]1CSSC[C@H](NC(=O)[C@H](CCCCN)NC(=O)[C@H](CCC(=O)O)NC(=O)CC[C@H](NC(=O)CCCCCCCCCCCCCCCCC(=O)O)C(=O)O)C(=O)N[C@@H](CC(N)=O)C(=O)N[C@@H]([C@@H](C)O)C(=O)N[C@@H](C)C(=O)N[C@@H]([C@@H](C)O)C(=O)N1)[C@@H](C)O)C(=O)N[C@@H](CC(C)C)C(=O)N1CCC[C@H]1C(=O)N1CCC[C@H]1C(=O)N[C@H](C(=O)N[C@@H](CC(N)=O)C(=O)N[C@H](C(=O)NCC(=O)N[C@@H](CO)C(=O)N[C@@H](Cc1c[nH]cn1)C(=O)N[C@H](C(=O)N[C@@H](Cc1ccc(O)cc1)C(N)=O)[C@@H](C)O)C(C)C)[C@@H](C)O [Example 62, N-alpha-[(S)-4-Carboxy-4-(17-carboxyheptadecanoylamino)butyryl]-Glu-[Glu14,Arg17,His35]-pramlintide] ({C18 diacid-γGlu}-EKCNTATCATQRLAEFLRHSSNNFGPILPPTNVGSHTY-NH2; disulfide 3-8 (inferred); C-terminus assumed) |
